Experimental data: US5039670A, “Antithrombotic substituted cycloalkano(B)dihydroindole- and -indole-sulphonamides and use” (Bayer Aktiengesellschaft, priority 1989, dated 1991)

system: thrombocyte aggregation; assay: Inhibition of collagen-triggered thrombocyte aggregation in platelet-rich citrated plasma (turbidometry, aggregometer); format: cell-based; settings: Homo sapiens, 0.1 h, 37° C., response after 6 minutes, read-out: EC (limiting concentration, range of the minimum effective concentration)
Experimental: To determine the action as an inhibitor of thrombocyte aggregation, blood was used from healthy subjects of both sexes. 9 parts of blood were treated with one part of 3.8% strength aqueous sodium citrate solution as an anticoagulant. From this blood, platelet-rich citrated plasma (PRP)^1 is obtained (Jurgens/Beller, Klinische Methoden der Blutgerinnungsanalyse [Clinical Methods in Blood Coagulation Analysis]; Thieme Verlag, Stuttgart, 1959).
For these assays, 0.8 ml of (PRP)^1 and 0.1 ml of the active compound solution were preincubated at 37° C. in a water bath. The thrombocyte aggregation was then determined in an aggregometer at 37° C. (Therapeutische Berichte 47, 80-86, 1975) by means of turbidometry (Born, G.V.R., J. Physiol. (London), 162, 67, 1962). For this purpose, the preincubated sample was treated with 0.1 ml of collagen, an agent which triggers aggregations. The (PRP)^1 sample underwent changes in optical density, which was recorded during a period of 6 minutes, and the response was determined after 6 minutes. From this, the inhibition compared with the control is calculated as a percentage. The limiting concentration given is the range of the minimum effective concentration.

Row | SMILES | minimal effective concentration
1 | CCOC(=O)CCn1c2c(c3cc(F)ccc31)CC(NS(=O)(=O)c1ccc(Cl)cc1)CC2 (stereo not drawn) [Example 8] | 0.3 to 1 µg/mL
2 | NC(=O)CCn1c2c(c3cc(F)ccc31)CC(NS(=O)(=O)c1ccc(Cl)cc1)CC2 (stereo not drawn) [Example 15] | 0.01 to 0.03 µg/mL
3 | O=C(O)CCn1c2c(c3cc(F)cc(F)c31)CC(NS(=O)(=O)c1ccc(Cl)cc1)CC2 (stereo not drawn) [Example 4] | 0.01 to 0.03 µg/mL
